Each structure is given as a SMILES string.

The experiment has as its target Solute carrier family 22 member 4 (Homo sapiens) (UniProt Q9H015). The experiment in a line: OCTN1 transporter activation by substrate – membrane potential dye, HEK-293 overexpressing cells, dose response (AID 1794816). As to conditions: HEK-293 SLC22A4 OE, FLIPR membrane potential dye.

Chain of Solute carrier family 22 member 4 (Homo sapiens) (Q9H015 whole entry, looked up): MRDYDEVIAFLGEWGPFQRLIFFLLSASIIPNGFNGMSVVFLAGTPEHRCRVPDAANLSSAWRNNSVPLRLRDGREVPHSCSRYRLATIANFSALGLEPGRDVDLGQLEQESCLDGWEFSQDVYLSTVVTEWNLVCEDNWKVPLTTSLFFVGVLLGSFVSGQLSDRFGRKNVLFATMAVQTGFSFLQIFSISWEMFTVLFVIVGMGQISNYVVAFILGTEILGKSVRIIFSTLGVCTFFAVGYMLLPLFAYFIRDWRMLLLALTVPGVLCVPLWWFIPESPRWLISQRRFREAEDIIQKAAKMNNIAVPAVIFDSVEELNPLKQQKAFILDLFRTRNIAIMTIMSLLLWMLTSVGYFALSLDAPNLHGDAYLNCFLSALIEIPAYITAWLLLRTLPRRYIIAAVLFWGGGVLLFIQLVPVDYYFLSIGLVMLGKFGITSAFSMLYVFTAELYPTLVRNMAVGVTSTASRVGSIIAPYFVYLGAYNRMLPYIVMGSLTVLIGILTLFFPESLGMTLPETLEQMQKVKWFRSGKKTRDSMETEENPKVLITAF

What is called EC50 is the concentration at which the effect is half-maximal. For the compound `C[N+](C)(C)[C@@H](Cc1c[nH]c(=S)[nH]1)C(=O)[O-]`, the 50% effective concentration (EC50) is 40 µM.

(Values after PubChem BioAssay AID1794816.)
